Assay results: PubChem BioAssay AID330 (DTP/NCI, 2004)
Several values for one entry are separate records, joined by “and”; a condition that tells them apart may be missing. Equal entries are not always repeated. Inconclusive results and toxic doses are left out. Rule for the calls: active = survival T/C of 150% or more; inactive = T/C below 125% in these data.

Tested on: P388 leukemia ip, CD2F1 mice, survival T/C
Assay: NCI In Vivo Anticancer Drug Screen. Data for tumor model P388 Leukemia (intraperitoneal) in CD2F1 (CDF1) mice
Conditions: endpoint: median survival time, higher = longer survival
Summary of the method: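 Mice carrying the transplanted tumor received test compound or vehicle. Survival was recorded in each group, and the value is the treated-group measurement divided by that of the vehicle-treated control group.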

[1] = dose: 50.0 mg/kg/injection, schedule: Q01DX009 (ip), vehicle: saline
[2] = dose: 100.0 mg/kg/injection, schedule: Q01DX009 (ip), vehicle: saline
[3] = dose: 200.0 mg/kg/injection, schedule: Q01DX009 (ip), vehicle: saline
[4] = dose: 50.0 mg/kg/injection, schedule: Q04DX002 (ip), vehicle: saline with Tween-80
[5] = dose: 50.0 mg/kg/injection, schedule: Q01DX009 (ip), vehicle: saline with Tween-80
[6] = dose: 200.0 mg/kg/injection, schedule: Q01DX009 (ip), vehicle: saline with Tween-80
[7] = dose: 50.0 mg/kg/injection, schedule: Q01DX005 (ip), vehicle: saline with Tween-80
[8] = dose: 100.0 mg/kg/injection, schedule: Q01DX005 (ip), vehicle: saline with Tween-80
[9] = dose: 200.0 mg/kg/injection, schedule: Q01DX005 (ip), vehicle: saline with Tween-80
[10] = dose: 0.75 mg/kg/injection, schedule: Q01DX009 (ip), vehicle: saline with Tween-80
[11] = dose: 1.5 mg/kg/injection, schedule: Q01DX009 (ip), vehicle: saline with Tween-80
[12] = dose: 3.0 mg/kg/injection, schedule: Q01DX009 (ip), vehicle: saline with Tween-80
[13] = dose: 12.5 mg/kg/injection, schedule: Q01DX009 (ip), vehicle: saline
[14] = dose: 25.0 mg/kg/injection, schedule: Q01DX009 (ip), vehicle: saline
[15] = dose: 100.0 mg/kg/injection, schedule: Q01DX009 (ip), vehicle: saline with Tween-80
[16] = dose: 50.0 mg/kg/injection, schedule: Q01DX005 (ip), vehicle: Klucel (hydroxypropylcellulose) (HPC)
[17] = dose: 100.0 mg/kg/injection, schedule: Q01DX005 (ip), vehicle: Klucel (hydroxypropylcellulose) (HPC)
[18] = dose: 100.0 mg/kg/injection, schedule: Q01DX001 (ip), vehicle: saline with Tween-80
[19] = dose: 200.0 mg/kg/injection, schedule: Q01DX001 (ip), vehicle: saline with Tween-80
[20] = dose: 400.0 mg/kg/injection, schedule: Q01DX001 (ip), vehicle: saline with Tween-80
[21] = dose: 60.0 mg/kg/injection, schedule: Q01DX005 (ip), vehicle: saline
[22] = dose: 120.0 mg/kg/injection, schedule: Q01DX005 (ip), vehicle: saline
[23] = dose: 60.0 mg/kg/injection, schedule: Q01DX005 (ip), vehicle: saline with Tween-80
[24] = dose: 120.0 mg/kg/injection, schedule: Q01DX005 (ip), vehicle: saline with Tween-80
[25] = dose: 240.0 mg/kg/injection, schedule: Q01DX005 (ip), vehicle: saline with Tween-80
[26] = dose: 100.0 mg/kg/injection, schedule: Q04DX002 (ip), vehicle: saline with Tween-80
[27] = dose: 200.0 mg/kg/injection, schedule: Q04DX002 (ip), vehicle: saline with Tween-80
[28] = dose: 50.0 mg/kg/injection, schedule: Q01DX005 (ip), vehicle: distilled water + alcohol
[29] = dose: 100.0 mg/kg/injection, schedule: Q01DX005 (ip), vehicle: distilled water + alcohol
[30] = dose: 200.0 mg/kg/injection, schedule: Q01DX005 (ip), vehicle: distilled water + alcohol

Measured: T/C

CN(C)c1ncnc2nc(Cl)[nH]c12
inactive: dose: 6.25 mg/kg/injection, schedule: Q01DX005 (ip), vehicle: Klucel (hydroxypropylcellulose) (HPC) 95 % of control | dose: 12.5 mg/kg/injection, schedule: Q01DX005 (ip), vehicle: Klucel (hydroxypropylcellulose) (HPC) 112 % of control | dose: 25.0 mg/kg/injection, schedule: Q01DX005 (ip), vehicle: Klucel (hydroxypropylcellulose) (HPC) 108 % of control

CCCC1CN2CCc3cc(OC)c(OC)cc3C2CC1=O (stereo unspecified)
inactive: [1] 100 % of control and 104 % of control | [2] 112 % of control and 115 % of control | [3] 120 % of control

Cc1c2ccncc2c(CNC(=O)C(N)Cc2c[nH]c3ccccc23)c2c3ccccc3n(C)c12 (stereo unspecified)
inactive: dose: 6.25 mg/kg/injection, schedule: Q04DX002 (ip), vehicle: saline with Tween-80 108 % of control | dose: 12.5 mg/kg/injection, schedule: Q04DX002 (ip), vehicle: saline with Tween-80 112 % of control | dose: 25.0 mg/kg/injection, schedule: Q04DX002 (ip), vehicle: saline with Tween-80 115 % of control | [4] 117 % of control

Cc1ccc(NC(=O)Oc2c(C)cc(Cl)cc2C)c([N+](=O)[O-])c1
inactive: [5] 95 % of control | [6] 95 % of control

CCCCCCCCCCCCCCCn1nnnc1N
inactive: [7] 86 % of control | [8] 91 % of control | [9] 96 % of control

Cc1nn(C(=O)c2ccncc2)c(C)c1N=Nc1ccc(Cl)cc1
inactive: [1] 99 % of control | [2] 91 % of control | [3] 90 % of control

O=C(O)c1ccnc2ccc3ccccc3c12
inactive: [7] 93 % of control | [8] 109 % of control | [9] 118 % of control

Oc1c(-c2ccccc2)cc(-[n+]2c(-c3ccccc3)cc(-c3ccccc3)cc2-c2ccccc2)cc1-c1ccccc1
inactive: dose: 0.38 mg/kg/injection, schedule: Q01DX009 (ip), vehicle: saline with Tween-80 88 % of control | [10] 106 % of control | [11] 121 % of control | [12] 122 % of control

CNC(=O)n1cccc(OC)c1=O
inactive: [13] 102 % of control and 107 % of control | [14] 100 % of control and 111 % of control

N#Cc1c(N)nc2c(c1N)CC(CCl)O2 (stereo unspecified)
inactive: [5] 94 % of control | [15] 96 % of control | [6] 87 % of control

CC(C)NCCCNC(=S)C(=S)NCCCNC(C)C
inactive: [16] 100 % of control | [17] 94 % of control

CC(=O)n1c(Cl)c(/C=N/NC(N)=S)c2ccccc21
inactive: [18] 86 % of control | [19] 94 % of control | [20] 100 % of control

CN1C2=CCCCC2(C)c2ccccc21 (stereo unspecified)
inactive: [21] 105 % of control | [22] 115 % of control | dose: 240.0 mg/kg/injection, schedule: Q01DX005 (ip), vehicle: saline 118 % of control

Nc1nc2ccccc2n1C(=O)C(F)(F)F
inactive: dose: 100.0 mg/kg/injection, schedule: Q01DX001 (ip), vehicle: Klucel (hydroxypropylcellulose) (HPC) 98 % of control | dose: 200.0 mg/kg/injection, schedule: Q01DX001 (ip), vehicle: Klucel (hydroxypropylcellulose) (HPC) 116 % of control

O=C(O)/C(=C\c1ccncc1)c1cccc2ccccc12
inactive: [5] 101 % of control | [15] 101 % of control | [6] 111 % of control | dose: 400.0 mg/kg/injection, schedule: Q01DX009 (ip), vehicle: saline with Tween-80 98 % of control

CC(C)C(C)C(O)C(O)C(C)C1CCC2C3COC(=O)C4CC(O)C(O)CC4(C)C3CCC12C (stereo unspecified)
inactive: [10] 106 % of control | dose: 1.05 mg/kg/injection, schedule: Q01DX009 (ip), vehicle: saline with Tween-80 98 % of control | [11] 112 % of control | dose: 2.1 mg/kg/injection, schedule: Q01DX009 (ip), vehicle: saline with Tween-80 103 % of control | [12] 99 % of control | dose: 4.2 mg/kg/injection, schedule: Q01DX009 (ip), vehicle: saline with Tween-80 100 % of control | dose: 6.0 mg/kg/injection, schedule: Q01DX009 (ip), vehicle: saline with Tween-80 103 % of control

CC1=CC(C)(C)Nc2ccc(OC(=O)/C=C(C)/C=C/C=C(C)/C=C/C3=C(C)CCCC3(C)C)cc21
inactive: [23] 94 % of control | [24] 91 % of control | [25] 94 % of control

CNC(=S)NNC1=NC(=S)NC1(C)C
inactive: [1] 98 % of control | [2] 103 % of control | [3] 101 % of control

C#CC(C)(C)Nc1c2ccccc2nc2ccccc12
inactive: [7] 96 % of control | [8] 103 % of control | [9] 102 % of control

Cc1ccc(NC(=O)NCCCCCCNC(=O)Nc2ccc(C)cc2)cc1
inactive: [23] 96 % of control | [24] 94 % of control | [25] 106 % of control

CN1CCC(=C2c3ccccc3Oc3ncccc32)CC1
inactive: [13] 102 % of control | [14] 111 % of control | [5] 102 % of control | [1] 99 % of control

CCOC(=O)NC(=O)c1c(C)oc(C)cc1=O
inactive: dose: 50.0 mg/kg/injection, schedule: Q01DX009 (ip), vehicle: Klucel (hydroxypropylcellulose) (HPC) 118 % of control | dose: 100.0 mg/kg/injection, schedule: Q01DX009 (ip), vehicle: Klucel (hydroxypropylcellulose) (HPC) 115 % of control | dose: 200.0 mg/kg/injection, schedule: Q01DX009 (ip), vehicle: Klucel (hydroxypropylcellulose) (HPC) 107 % of control

C=CCSc1nc(-c2ccc(Cl)cc2)c(C#N)c(=O)[nH]1
inactive: [18] 100 % of control | [19] 97 % of control | [20] 92 % of control

CC(C)Cn1c(Cl)c(/C=N\Nc2ccc([N+](=O)[O-])cc2)c2ccccc21
inactive: dose: 12.5 mg/kg/injection, schedule: Q01DX001 (ip), vehicle: saline 94 % of control | dose: 25.0 mg/kg/injection, schedule: Q01DX001 (ip), vehicle: saline 88 % of control | dose: 50.0 mg/kg/injection, schedule: Q01DX001 (ip), vehicle: saline 96 % of control

Cn1c(=O)ccc2c(=O)c3ccccc3oc21
inactive: [26] 100 % of control | [27] 110 % of control | dose: 400.0 mg/kg/injection, schedule: Q04DX002 (ip), vehicle: saline with Tween-80 107 % of control

CCCCCCC(=O)CC(SCC(NC(C)=O)C(=O)O)c1ccccc1Cl (stereo unspecified)
inactive: [21] 101 % of control | [22] 93 % of control

CCCN=C(c1ccccc1C=O)c1c2ccccc2cn1CCC
inactive: dose: 7.5 mg/kg/injection, schedule: Q01DX005 (ip), vehicle: saline + Tween-80 + alcohol 114 % of control | dose: 15.0 mg/kg/injection, schedule: Q01DX005 (ip), vehicle: saline + Tween-80 + alcohol 124 % of control | dose: 30.0 mg/kg/injection, schedule: Q01DX005 (ip), vehicle: saline + Tween-80 + alcohol 119 % of control

[Cl][Ge]([c]1ccccc1)[c]1ccccc1.c1cc[c]([GeH][c]2ccccc2)cc1
inactive: [16] 93 % of control | [17] 100 % of control | dose: 200.0 mg/kg/injection, schedule: Q01DX005 (ip), vehicle: Klucel (hydroxypropylcellulose) (HPC) 103 % of control

OC[C@@H](O)C[C@H](CO)Cc1ccc2c(c1)OCO2
inactive: [4] 96 % of control | [26] 87 % of control | [27] 99 % of control

Nc1ncnc2c1ccn2CC(O)COP(=O)(O)O (stereo unspecified)
inactive: [28] 104 % of control | [29] 100 % of control | [30] 100 % of control

Nc1nc(F)nc2c1ncn2CC(O)CO (stereo unspecified)
inactive: [28] 100 % of control | [29] 101 % of control | [30] 95 % of control
